Measurements published in ChEMBL document CHEMBL3351686, “Facile and diastereoselective synthesis of 3,2'-spiropyrrolidine-oxindoles derivatives, their molecular docking and antiproliferative activities” (2015).
In brackets after ≈: the same amount, converted by molar mass.

Key:
Klebsiella aerogenes [1] = assay: Antibacterial activity against Enterobacter aerogenes MTCC 111 assessed as zone of inhibition at 1 mg/disc after 24 hrs by disc diffusion method; type: functional
Shigella flexneri [2] = assay: Antibacterial activity against Shigella flexneri MTCC 1457 assessed as inhibition of visual growth after 24 hrs; type: functional; details: MTCC 1457, 24 h
Malassezia pachydermatis [3] = assay: Antifungal activity against Malassezia pachydermatis assessed as inhibition of visual growth after 48 to 72 hrs; type: functional
Proteus vulgaris [4] = assay: Antibacterial activity against Proteus vulgaris MTCC 1771 assessed as zone of inhibition at 1 mg/disc after 24 hrs by disc diffusion method; type: functional
Micrococcus luteus [5] = assay: Antibacterial activity against Micrococcus luteus MTCC 106 assessed as inhibition of visual growth after 24 hrs; type: functional; details: MTCC 106, 24 h
[6] = tested on: Staphylococcus epidermidis; assay: Antibacterial activity against Staphylococcus epidermidis MTCC 3615 assessed as zone of inhibition at 1 mg/disc after 24 hrs by disc diffusion method; type: functional
Salmonella typhimurium [7] = assay: Antibacterial activity against Salmonella typhimurium MTCC 1251 assessed as inhibition of visual growth after 24 hrs; type: functional, Salmonella enterica subsp. enterica serovar Typhimurium; details: Salmonella enterica, MTCC 1251, 24 h
Staphylococcus aureus [8] = assay: Antibacterial activity against Staphylococcus aureus MTCC 96 assessed as inhibition of visual growth after 24 hrs; type: functional; details: MTCC 96, 24 h
Candida albicans [9] = assay: Antifungal activity against Candida albicans MTCC 227 assessed as zone of inhibition at 1 mg/disc after 48 hrs by disc diffusion method; type: functional
Klebsiella pneumoniae [10] = assay: Antibacterial activity against Klebsiella pneumoniae MTCC 109 assessed as zone of inhibition at 1 mg/disc after 24 hrs by disc diffusion method; type: functional
Malassezia pachydermatis [11] = assay: Antifungal activity against Malassezia pachydermatis assessed as zone of inhibition at 1 mg/disc after 48 hrs by disc diffusion method; type: functional
Staphylococcus aureus [12] = assay: Antibacterial activity against methicillin-resistant Staphylococcus aureus assessed as inhibition of visual growth after 24 hrs; type: functional
Klebsiella aerogenes [13] = assay: Antibacterial activity against Enterobacter aerogenes MTCC 111 assessed as inhibition of visual growth after 24 hrs; type: functional; details: MTCC 111, 24 h
Salmonella typhimurium [14] = assay: Antibacterial activity against Salmonella typhimurium MTCC 1251 assessed as zone of inhibition at 1 mg/disc after 24 hrs by disc diffusion method; type: functional, Salmonella enterica subsp. enterica serovar Typhimurium
Candida albicans [15] = assay: Antifungal activity against Candida albicans MTCC 227 assessed as inhibition of visual growth after 48 to 72 hrs; type: functional
Staphylococcus aureus [16] = assay: Antibacterial activity against Staphylococcus aureus MTCC 96 assessed as zone of inhibition at 1 mg/disc after 24 hrs by disc diffusion method; type: functional
[17] = tested on: Staphylococcus epidermidis; assay: Antibacterial activity against Staphylococcus epidermidis MTCC 3615 assessed as inhibition of visual growth after 24 hrs; type: functional; details: MTCC 3615, 24 h
Shigella flexneri [18] = assay: Antibacterial activity against Shigella flexneri MTCC 1457 assessed as zone of inhibition at 1 mg/disc after 24 hrs by disc diffusion method; type: functional
Klebsiella pneumoniae [19] = assay: Antibacterial activity against Klebsiella pneumoniae MTCC 109 assessed as inhibition of visual growth after 24 hrs; type: functional; details: MTCC 109, 24 h
Staphylococcus aureus [20] = assay: Antibacterial activity against methicillin-resistant Staphylococcus aureus assessed as zone of inhibition at 1 mg/disc after 24 hrs by disc diffusion method; type: functional
Micrococcus luteus [21] = assay: Antibacterial activity against Micrococcus luteus MTCC 106 assessed as zone of inhibition at 1 mg/disc after 24 hrs by disc diffusion method; type: functional
Proteus vulgaris [22] = assay: Antibacterial activity against Proteus vulgaris MTCC 1771 assessed as inhibition of visual growth after 24 hrs; type: functional; details: MTCC 1771, 24 h

`CC(=O)N1CCN(c2ccc(OCC3COC(Cn4ccnc4)(c4ccc(Cl)cc4Cl)O3)cc2)CC1` (stereo unspecified) [KETOCONAZOLE] was tested, and the “inhibition zone (IZ)” value (Klebsiella aerogenes [1]) was 22 mm, the MIC (Shigella flexneri [2]) was 6.25 µg/mL (≈ 11.8 µM) and the MIC (Malassezia pachydermatis [3]) was 25 µg/mL (≈ 47 µM). The “inhibition zone (IZ)” value (Proteus vulgaris [4]) was 30 mm, the MIC (Micrococcus luteus [5]) was 6.25 µg/mL (≈ 11.8 µM) and the “inhibition zone (IZ)” value [6] was 14 mm. The MIC (Salmonella typhimurium [7]) was 30 µg/mL (≈ 56.5 µM), the MIC (Staphylococcus aureus [8]) was 6.25 µg/mL (≈ 11.8 µM) and the “inhibition zone (IZ)” value (Candida albicans [9]) was 28 mm. The “inhibition zone (IZ)” value (Klebsiella pneumoniae [10]) was 20 mm, the “inhibition zone (IZ)” value (Malassezia pachydermatis [11]) was 26 mm and the MIC (Staphylococcus aureus [12]) was 6.25 µg/mL (≈ 11.8 µM). For the same compound, the MIC (Klebsiella aerogenes [13]) was 25 µg/mL (≈ 47 µM), the “inhibition zone (IZ)” value (Salmonella typhimurium [14]) was 18 mm and the MIC (Candida albicans [15]) was 25 µg/mL (≈ 47 µM). The “inhibition zone (IZ)” value (Staphylococcus aureus [16]) was 14 mm, the MIC [17] was 6.25 µg/mL (≈ 11.8 µM) and the “inhibition zone (IZ)” value (Shigella flexneri [18]) was 30 mm. For the same compound, the MIC (Klebsiella pneumoniae [19]) was 6.25 µg/mL (≈ 11.8 µM), the “inhibition zone (IZ)” value (Staphylococcus aureus [20]) was 30 mm and the “inhibition zone (IZ)” value (Micrococcus luteus [21]) was 26 mm.

For `N#C[C@]1(C(=O)c2c[nH]c3ccccc23)C2CSCN2[C@]2(C(=O)Nc3ccccc32)[C@@H]1c1cn(-c2ccccc2)nc1-c1ccccc1` (stereo partly specified), the “inhibition zone (IZ)” value (Klebsiella aerogenes [1]) was 13 mm, the MIC (Proteus vulgaris [22]) was 500 µg/mL (≈ 790 µM) and the MIC (Shigella flexneri [2]) was 500 µg/mL (≈ 790 µM). For the same compound, the MIC (Malassezia pachydermatis [3]) was 250 µg/mL (≈ 395 µM), the “inhibition zone (IZ)” value (Proteus vulgaris [4]) was 10 mm and the MIC (Micrococcus luteus [5]) was 500 µg/mL (≈ 790 µM). The “inhibition zone (IZ)” value [6] was 13 mm, the MIC (Salmonella typhimurium [7]) was 500 µg/mL (≈ 790 µM) and the MIC (Staphylococcus aureus [8]) was 500 µg/mL (≈ 790 µM). For the same compound, the “inhibition zone (IZ)” value (Candida albicans [9]) was 9 mm, the “inhibition zone (IZ)” value (Klebsiella pneumoniae [10]) was 10 mm and the “inhibition zone (IZ)” value (Malassezia pachydermatis [11]) was 8 mm. For the same compound, the MIC (Staphylococcus aureus [12]) was 500 µg/mL (≈ 790 µM), the MIC (Klebsiella aerogenes [13]) was 500 µg/mL (≈ 790 µM) and the “inhibition zone (IZ)” value (Salmonella typhimurium [14]) was 11 mm. For the same compound, the MIC (Candida albicans [15]) was 1250 µg/mL (≈ 1980 µM), the “inhibition zone (IZ)” value (Staphylococcus aureus [16]) was 14 mm and the MIC [17] was 500 µg/mL (≈ 790 µM). The “inhibition zone (IZ)” value (Shigella flexneri [18]) was 8 mm, the MIC (Klebsiella pneumoniae [19]) was 500 µg/mL (≈ 790 µM) and the “inhibition zone (IZ)” value (Staphylococcus aureus [20]) was 8 mm. For the same compound, the “inhibition zone (IZ)” value (Micrococcus luteus [21]) was 11 mm.

For `N#C[C@]1(C(=O)c2c[nH]c3ccccc23)C2CCCN2[C@]2(C(=O)Nc3ccc([N+](=O)[O-])cc32)[C@@H]1c1cn(-c2ccccc2)nc1-c1ccccc1` (stereo partly specified), the “inhibition zone (IZ)” value (Klebsiella aerogenes [1]) was 10 mm, the MIC (Proteus vulgaris [22]) was 125 µg/mL (≈ 189 µM) and the MIC (Shigella flexneri [2]) was 500 µg/mL (≈ 758 µM). For the same compound, the MIC (Malassezia pachydermatis [3]) was 500 µg/mL (≈ 758 µM), the “inhibition zone (IZ)” value (Proteus vulgaris [4]) was 9 mm and the MIC (Micrococcus luteus [5]) was 500 µg/mL (≈ 758 µM). The “inhibition zone (IZ)” value [6] was 12 mm, the MIC (Salmonella typhimurium [7]) was 250 µg/mL (≈ 379 µM) and the MIC (Staphylococcus aureus [8]) was 125 µg/mL (≈ 189 µM). The “inhibition zone (IZ)” value (Candida albicans [9]) was 11 mm, the “inhibition zone (IZ)” value (Klebsiella pneumoniae [10]) was 9 mm and the MIC (Staphylococcus aureus [12]) was 500 µg/mL (≈ 758 µM). The MIC (Klebsiella aerogenes [13]) was 250 µg/mL (≈ 379 µM), the “inhibition zone (IZ)” value (Salmonella typhimurium [14]) was 9 mm and the MIC (Candida albicans [15]) was 250 µg/mL (≈ 379 µM). The “inhibition zone (IZ)” value (Staphylococcus aureus [16]) was 11 mm, the MIC [17] was 250 µg/mL (≈ 379 µM) and the “inhibition zone (IZ)” value (Shigella flexneri [18]) was 8 mm. For the same compound, the MIC (Klebsiella pneumoniae [19]) was 250 µg/mL (≈ 379 µM), the “inhibition zone (IZ)” value (Staphylococcus aureus [20]) was 9 mm and the “inhibition zone (IZ)” value (Micrococcus luteus [21]) was 8 mm.

In the case of `N#C[C@]1(C(=O)c2c[nH]c3ccccc23)C2CCCN2[C@]2(C(=O)Nc3ccccc32)[C@@H]1c1cn(-c2ccccc2)nc1-c1ccccc1` (stereo partly specified), the “inhibition zone (IZ)” value (Klebsiella aerogenes [1]) is reported as 12 mm, the MIC (Proteus vulgaris [22]) is reported as 125 µg/mL (≈ 203 µM) and the MIC (Shigella flexneri [2]) is reported as 31.2 µg/mL (≈ 50.8 µM). The MIC (Malassezia pachydermatis [3]) was 500 µg/mL (≈ 813 µM), the “inhibition zone (IZ)” value (Proteus vulgaris [4]) was 12 mm and the MIC (Micrococcus luteus [5]) was 31.2 µg/mL (≈ 50.8 µM). For the same compound, the “inhibition zone (IZ)” value [6] was 13 mm, the MIC (Salmonella typhimurium [7]) was 250 µg/mL (≈ 407 µM) and the MIC (Staphylococcus aureus [8]) was 31.2 µg/mL (≈ 50.8 µM). The “inhibition zone (IZ)” value (Candida albicans [9]) was 10 mm, the “inhibition zone (IZ)” value (Klebsiella pneumoniae [10]) was 9 mm and the “inhibition zone (IZ)” value (Malassezia pachydermatis [11]) was 8 mm. The MIC (Staphylococcus aureus [12]) was 31.2 µg/mL (≈ 50.8 µM), the MIC (Klebsiella aerogenes [13]) was 62.5 µg/mL (≈ 102 µM) and the “inhibition zone (IZ)” value (Salmonella typhimurium [14]) was 8 mm. For the same compound, the MIC (Candida albicans [15]) was 125 µg/mL (≈ 203 µM), the “inhibition zone (IZ)” value (Staphylococcus aureus [16]) was 12 mm and the MIC [17] was 62.5 µg/mL (≈ 102 µM). The “inhibition zone (IZ)” value (Shigella flexneri [18]) was 10 mm, the MIC (Klebsiella pneumoniae [19]) was 31.2 µg/mL (≈ 50.8 µM) and the “inhibition zone (IZ)” value (Staphylococcus aureus [20]) was 10 mm. For the same compound, the “inhibition zone (IZ)” value (Micrococcus luteus [21]) was 11 mm.
